# According to PMC5298035 (Clinical Pharmacology in Drug Development, 2016):
# Structures can show the parent of a compound that is named as a salt. Where two headings read alike, the source gives them in different places.
# How the values were obtained:
# Safety [1] = assay type: in vivo, human; conditions: ketoconazole study, by treatment period
# [2] = assay type: in vivo, human
# CYP1A2 [3] = conditions: cultured human hepatocytes; ref data on file; cited from earlier work
# CYP2E1 = conditions: pooled human liver microsomes; ref data on file; cited from earlier work
# CYP2C8 [4] = conditions: CYP2C8-expressing human liver microsomes; ref data on file; cited from earlier work
# Safety [5] = assay type: in vivo, human; conditions: midazolam study, by treatment period
# CYP3A5 = conditions: CYP3A5-expressing human liver microsomes; ref data on file; cited from earlier work
# Safety [6] = assay type: in vivo, human; conditions: ethinyl estradiol/norethindrone study, by treatment period
# CYP2D6 = conditions: pooled human liver microsomes; ref data on file; cited from earlier work
# CYP2C9 [7] = conditions: cultured human hepatocytes; ref data on file; cited from earlier work
# CYP2C9 [8] = conditions: in vitro; ref unpublished data; cited from earlier work
# CYP2C19 [9] = conditions: pooled human liver microsomes; ref data on file; cited from earlier work
# CYP2B6 [10] = conditions: CYP2B6-expressing human liver microsomes; ref data on file; cited from earlier work
# CYP2B6 [11] = conditions: cultured human hepatocytes; ref data on file; cited from earlier work
# CYP3A4 [12] = biological target: T1, CYP3A4 (Homo sapiens, UniProt P08684); conditions: CYP3A4-expressing human liver microsomes; ref data on file; cited from earlier work
# CYP4A11 = conditions: pooled human liver microsomes; ref data on file; cited from earlier work
# CYP3A4 [13] = biological target: T1, CYP3A4; conditions: cultured human hepatocytes; ref data on file; cited from earlier work
# [14] = Phase 1 rifampin interaction study: plasma PK of isavuconazole; assay type: in vivo, human
# CYP2C8 [15] = conditions: cultured human hepatocytes; ref data on file; cited from earlier work
# CYP2C9 [16] = conditions: pooled human liver microsomes; ref data on file; cited from earlier work
# Safety [17] = assay type: in vivo, human; conditions: rifampin study, by treatment period
# [18] = active drug released from prodrug; cited from earlier work
# CYP3A7 = conditions: CYP3A7-expressing human liver microsomes; ref data on file; cited from earlier work
# CYP3A4 [19] = biological target: T1, CYP3A4; assay: Clinical CYP3A4 drug-drug interaction classification; assay type: in vivo
# CYP2B6 [20] = conditions: in vitro; ref unpublished data; cited from earlier work
# CYP1A2 [21] = conditions: pooled human liver microsomes; ref data on file; cited from earlier work
# [22] = assay type: in vivo, human; remark: listed apart in the source
# [23] = cited from earlier work
# P-glycoprotein = conditions: in vitro; ref unpublished data; cited from earlier work
# CYP2A6 = conditions: pooled human liver microsomes; ref data on file; cited from earlier work
# CYP2C19 [24] = conditions: cultured human hepatocytes; ref data on file; cited from earlier work
# [25] = Phase 1 ethinyl estradiol/norethindrone interaction study: plasma PK; assay type: in vivo, human; conditions: for AUCτ: n = 23, arithmetic mean (SD); for Geometric least-squares mean ratio, AUC0-∞ / Geometric least-squares mean ratio, AUClast / Geometric least-squares mean ratio, Cmax: (90% CI)
# [26] = coadministration with lopinavir/ritonavir; cited from earlier work
# [27] = active drug released from prodrug; cited from earlier work; remark: listed apart in the source
# CYP3A4 [28] = conditions: cited from earlier work
# CYP3A4 [29] = conditions: cited from earlier work; remark: listed apart in the source
# esterases = conditions: in the gut and blood; cited from earlier work
# [30] = both, human, plasma, po, 200 mg
# [31] = isavuconazole + ketoconazole vs isavuconazole alone, (90% CI)
# [32] = presence vs absence of ketoconazole 200 mg BID
# [33] = coadministration with rifampin 600 mg QD vs isavuconazole alone
# [34] = isavuconazole + rifampin vs isavuconazole alone, (90% CI)
# [35] = norethindrone, coadministration with isavuconazole vs alone
# [36] = norethindrone: + isavuconazole vs alone
# [37] = midazolam + isavuconazole vs midazolam alone, (90% CI)
# [38] = midazolam, presence vs absence of isavuconazole
# [39] = ethinyl estradiol, presence vs absence of isavuconazole
# [40] = ethinyl estradiol: + isavuconazole vs alone
# T1 sequence (P08684 whole entry): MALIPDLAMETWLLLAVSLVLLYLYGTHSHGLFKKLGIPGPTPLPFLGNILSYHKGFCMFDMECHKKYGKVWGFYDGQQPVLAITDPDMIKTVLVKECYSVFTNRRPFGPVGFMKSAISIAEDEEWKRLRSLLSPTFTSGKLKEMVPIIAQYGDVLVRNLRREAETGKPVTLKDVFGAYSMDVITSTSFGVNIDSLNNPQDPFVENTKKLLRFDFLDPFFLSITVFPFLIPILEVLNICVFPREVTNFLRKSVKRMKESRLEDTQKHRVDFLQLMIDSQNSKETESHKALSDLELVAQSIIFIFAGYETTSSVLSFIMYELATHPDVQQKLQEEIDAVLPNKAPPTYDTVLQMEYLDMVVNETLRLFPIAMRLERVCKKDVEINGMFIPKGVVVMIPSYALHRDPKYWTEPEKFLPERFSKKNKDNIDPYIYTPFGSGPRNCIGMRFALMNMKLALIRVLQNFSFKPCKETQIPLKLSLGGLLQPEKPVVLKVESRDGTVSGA
smiles,measurement,setting,value
"CC(=O)N1CCN(c2ccc(OCC3COC(Cn4ccnc4)(c4ccc(Cl)cc4Cl)O3)cc2)CC1 (centres unmarked) [Ketoconazole, ketoconazole, reference compound]",subjects reporting TEAEs,Safety [1],no subjects
same,"Geometric least-squares mean ratio, Cmax","[2]; ketoconazole + isavuconazole vs ketoconazole alone, 90% CI 105, 134",118%
same,"Geometric least-squares mean ratio, AUCτ","[2]; ketoconazole + isavuconazole vs ketoconazole alone, 90% CI 112, 144",127%
"C[C@@H](c1nc(-c2ccc(C#N)cc2)cs1)[C@](O)(Cn1cncn1)c1cc(F)ccc1F [Isavuconazole, isavuconazole]",maximum increase in CYP1A2 mRNA,CYP1A2 [3],5.4 fold
same,maximum increase in phenacetin O-dealkylase activity (CYP1A2),CYP1A2 [3],2.8 fold
same,subjects reporting TEAEs,Safety [1],2 (16.7%) subjects
same,correlation of isavuconazole metabolism with CYP2E1 activity,CYP2E1,No correlations
same,ratio of the remaining isavuconazole,CYP2C8 [4],> 98%
same,subjects who experienced TEAEs,Safety [5],10 n
same,subjects with drug-related TEAEs,Safety [5],5 n
same,ratio of the remaining isavuconazole,CYP3A5,68.4%
same,subjects who experienced TEAEs,Safety [6],6 n
same,subjects with drug-related TEAEs,Safety [6],3 subjects
same,correlation of isavuconazole metabolism with CYP2D6 activity,CYP2D6,No correlations
same,maximum increase in CYP2C9 mRNA,CYP2C9 [7],3.1 fold
same,maximum increase in diclofenac 4'-hydroxylase activity (CYP2C9),CYP2C9 [7],none
same,substrate of CYP2C9,CYP2C9 [8],not a substrate
same,correlation of isavuconazole metabolism with CYP2C19 activity,CYP2C19 [9],No correlations
same,ratio of the remaining isavuconazole,CYP2B6 [10],> 98%
same,maximum increase in CYP2B6 mRNA,CYP2B6 [11],11.4 fold
same,maximum increase in bupropion hydroxylase activity (CYP2B6),CYP2B6 [11],13.4 fold
same,AUC(0-inf),[2]; [30],84800 ng·h/mL
same,AUC(0-t),[2]; [30],64900 ng·h/mL
same,Cmax,[2]; [30],2200 ng/mL
same,Tmax,[2]; [30],2 h
same,half-life,[2]; [30],117 h
same,CL/F,"[2]; isavuconazole 200 mg single oral dose alone, n = 12, arithmetic mean (SD)",2.5 (0.6) L/h
same,"Geometric least-squares mean ratio, AUC0-∞",[2]; [31],"522 (409, 666) %"
same,"Geometric least-squares mean ratio, AUClast",[2]; [31],"373 (319, 435) %"
same,"Geometric least-squares mean ratio, Cmax",[2]; [31],"109 (93, 127) %"
same,increase in mean AUC0-∞,[2]; [32],422%
same,increase in mean AUClast,[2]; [32],273%
same,increase in mean Cmax,[2]; [32],9%
same,ratio of the remaining isavuconazole,CYP3A4 [12],33.8%
same,correlation of isavuconazole metabolism with CYP4A11 activity,CYP4A11,No correlations
same,increase in CYP3A4 mRNA,CYP3A4 [13],≤ 6.4 fold
same,increase in testosterone hydroxylation activity (CYP3A4),CYP3A4 [13],up to 3.4 fold
same,decrease in mean AUC0-∞,[14]; [33],97%
same,decrease in mean AUClast,[14]; [33],97%
same,decrease in mean AUCτ,[14]; [33],90%
same,decrease in mean Cmax,[14]; [33],75%
same,"Geometric least-squares mean ratio, AUC0-∞",[14]; [34],"3 (2, 3) %"
same,"Geometric least-squares mean ratio, AUClast",[14]; [34],"3 (3, 3) %"
same,"Geometric least-squares mean ratio, AUCτ",[14]; [34],"10 (9, 11) %"
same,"Geometric least-squares mean ratio, Cmax",[14]; [34],"25 (23, 27) %"
same,Tmax,"[14]; male, human, plasma, po",2 h
same,maximum increase in CYP2C8 mRNA,CYP2C8 [15],4.3 fold
same,maximum increase in amodiaquine N-dealkylase activity (CYP2C8),CYP2C8 [15],2.6 fold
same,correlation of isavuconazole metabolism with CYP2C9 activity,CYP2C9 [16],No correlations
same,subjects who experienced TEAEs,Safety [17],19 n
same,subjects with drug-related TEAEs,Safety [17],17 n
same,permeability (in words),[18],highly permeable
same,ratio of the remaining isavuconazole,CYP3A7,> 98%
same,classification as inhibitor of CYP3A4,"CYP3A4 [19]; from midazolam coadministration in healthy adults, in vivo",moderate inhibitor
same,classification as substrate of CYP3A4,CYP3A4 [19]; from rifampin and ketoconazole coadministration in healthy adults,sensitive substrate
same,substrate of CYP2B6,CYP2B6 [20],not a substrate
same,correlation of isavuconazole metabolism with CYP1A2 activity,CYP1A2 [21],No correlations
same,Cmax,"[22]; both, human, plasma, oral, 200 mg",5200 ng/mL
same,mean AUCτ in the presence vs absence of midazolam (in words),[22]; isavuconazole 200 mg QD,comparable
same,mean Cmax in the presence vs absence of midazolam (in words),[22]; isavuconazole 200 mg QD,comparable
same,Oral bioavailability,[23],98%
same,food or pH effect on absorption,[23],no evidence of a clinically relevant food or pH effect
same,substrate of P-glycoprotein,P-glycoprotein,not a substrate
same,correlation of isavuconazole metabolism with CYP2A6 activity,CYP2A6,No correlations
same,increase in CYP2C19 mRNA levels,CYP2C19 [24],No isavuconazole‐induced increases
same,increase in S-(+)-mephenytoin 4'-hydroxylation activity (CYP2C19),CYP2C19 [24],No isavuconazole‐induced increases
same,Cmax,"[25]; female, human, plasma, oral, 200 mg",5800 ng/mL
same,AUCτ,"[25]; isavuconazole 200 mg QD + ethinyl estradiol 35 μg/norethindrone 1 mg, day 13",81.4 (19.0) h·μg/mL
same,AUCτ,"[25]; isavuconazole 200 mg QD alone, day 12",80.8 (18.7) h·μg/mL
same,increase in isavuconazole exposure,[26],approximately 2 fold
same,solubility (in words),[27],poorly soluble
C[C@@H](c1ncncc1F)[C@](O)(Cn1cncn1)c1ccc(F)cc1F [voriconazole],increase in midazolam AUC on coadministration,CYP3A4 [28],approximately 10 fold
same,increases in ethinyl estradiol and norethindrone on coadministration,CYP3A4 [29],less than 2 fold
"C#C[C@]1(O)CC[C@H]2[C@@H]3CCC4=CC(=O)CC[C@@H]4[C@H]3CC[C@@]21C [Norethindrone, norethindrone]",Tmax,"[25]; female, human, plasma, po",1 h
same,half-life,"[25]; female, human, plasma, po",13.1 h
same,increase in mean AUC0-∞,[25]; [35],16%
same,increase in mean AUClast,[25]; [35],16%
same,increase in mean Cmax,[25]; [35],6%
same,"Geometric least-squares mean ratio, AUC0-∞",[25]; [36],"116 (109, 123) %"
same,"Geometric least-squares mean ratio, AUClast",[25]; [36],"116 (109, 123) %"
same,"Geometric least-squares mean ratio, Cmax",[25]; [36],"106 (93, 120) %"
"Cc1ncc2n1-c1ccc(Cl)cc1C(c1ccccc1F)=NC2 [Midazolam, midazolam]",subjects who experienced TEAEs,Safety [5],9 n
same,subjects with drug-related TEAEs,Safety [5],6 n
same,AUC(0-inf),"[22]; both, human, plasma, po, 3 mg",46 ng·h/mL
same,AUC(0-t),"[22]; both, human, plasma, po, 3 mg",44.5 ng·h/mL
same,Cmax,"[22]; both, human, plasma, po, 3 mg",10.7 ng/mL
same,Tmax,"[22]; both, human, plasma, po, 3 mg",1 h
same,half-life,"[22]; both, human, plasma, po, 3 mg",5.4 h
same,CL/F,"[22]; midazolam 3 mg single oral dose alone, day 1, n = 23, arithmetic mean (SD)",72.1 (24.6) L/h
same,"Geometric least-squares mean ratio, AUC0-∞",[22]; [37],"203 (173, 238) %"
same,"Geometric least-squares mean ratio, AUClast",[22]; [37],"206 (175, 243) %"
same,"Geometric least-squares mean ratio, Cmax",[22]; [37],"172 (144, 205) %"
same,increase in mean AUC0-∞,[22]; [38],103%
same,increase in mean AUClast,[22]; [38],106%
same,increase in mean Cmax,[22]; [38],72%
"CO[C@H]1/C=C/O[C@@]2(C)Oc3c(C)c(O)c4c(O)c(c(/C=N/N5CCN(C)CC5)c(O)c4c3C2=O)NC(=O)/C(C)=C\C=C\[C@H](C)[C@H](O)[C@@H](C)[C@@H](O)[C@@H](C)[C@H](OC(C)=O)[C@@H]1C [Rifampin, rifampin, reference compound]",subjects who experienced TEAEs,Safety [17],19 n
same,subjects with drug-related TEAEs,Safety [17],7 n
CNCC(=O)OCc1cccnc1N(C)C(=O)OC(C)[n+]1cnn(C[C@](O)(c2cc(F)ccc2F)[C@@H](C)c2nc(-c3ccc(C#N)cc3)cs2)c1 (some centres unmarked) [isavuconazonium sulfate],hydrolysis of prodrug by esterases,esterases,rapid hydrolysis
CC[C@@H]([C@H](C)O)n1ncn(-c2ccc(N3CCN(c4ccc(OC[C@@H]5CO[C@@](Cn6cncn6)(c6ccc(F)cc6F)C5)cc4)CC3)cc2)c1=O [posaconazole],increase in exposure of midazolam on coadministration,CYP3A4 [28],up to 5 fold
CCC(C)n1ncn(-c2ccc(N3CCN(c4ccc(OCC5COC(Cn6cncn6)(c6ccc(Cl)cc6Cl)O5)cc4)CC3)cc2)c1=O (centres unmarked) [itraconazole],increase in exposure of midazolam on coadministration,CYP3A4 [28],up to 10 fold
"C#C[C@]1(O)CC[C@H]2[C@@H]3CCc4cc(O)ccc4[C@H]3CC[C@@]21C [Ethinyl Estradiol, ethinyl estradiol]",increase in mean AUC0-∞,[25]; [39],8%
same,increase in mean AUClast,[25]; [39],10%
same,increase in mean Cmax,[25]; [39],14%
same,"Geometric least-squares mean ratio, AUC0-∞",[25]; [40],"108 (103, 113) %"
same,"Geometric least-squares mean ratio, AUClast",[25]; [40],"110 (104, 116) %"
same,"Geometric least-squares mean ratio, Cmax",[25]; [40],"114 (103, 126) %"
same,half-life,"[25]; female, human, plasma, po",20.5 h
